What all share (assay): growth of human tumour cells (NCI), 48 h
Test [1] concerns OVCAR-8 ovarian.
Test [2] concerns HCT-116 colon.
Test [3] relates to SW-620 colon.
The subject of test [4] is IGROV1 ovarian.
Test [5] relates to U251 CNS.
Test [6] concerns LOX IMVI melanoma.
In test [7] the test system is HOP-62 NSCLC.
Test [8] deals with SF-268 CNS.
The test system of test [9] is MALME-3M melanoma.
Test [10] concerns HT29 colon.

From PubChem BioAssay (NCI) come the findings set out here.

“And” between values parts separate entries of the source, which are not always exact repeats. Equal values may be shown once.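 Five compound concentrations were applied to cells in 96-well plates for 48 hours; endpoints were derived by simple linear interpolation of the resulting dose-response curve. Abbreviation: GI50, concentration required for 50% inhibition of growth. TGI: total growth inhibition.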

With `CCOC(=O)C(Cc1ccccc1)NC(=O)c1[nH]cnc1/N=N/N(C)C` (centres undefined), the TGI in [1], in [2], in [3], in [4], in test [5] and in test [6] was > 100 µM throughout. Moreover, the TGI in [7], in test [8], in [9] and in test [10] was > 100 µM in each case.
Take `CCCCc1c2cnccc2c(CCCC)c2c1[nH]c1ccccc12`: the TGI is 31.1 µM in [1]; 18.1 µM in test [2]; > 100 µM in test [3]; 30.3 µM in test [4]; 27 µM in test [5]; 41.4 µM in [6]. For the same compound, the TGI in test [7] is 18.8 µM; in [8], 47.1 µM; in [9] it was 37.8 µM; in test [10], 29 µM.
In the case of `C[C@]12CC[C@H]3[C@@H](CC4SC(N)=NC45C/C(=N/NC(N)=O)CC[C@]35C)[C@@H]1CCC2=O` (some centres undefined), the GI50 in [1] is 1.85 µM; in test [2], 2.09 µM; in [3] it was 1.69 µM; in test [4], 1.78 µM; in test [5] it was 1.77 µM; in test [6], 1.71 µM. The GI50 in test [7] was 1.84 µM; in [8], 1.78 µM; in test [9], 1.76 µM; in test [10], 1.88 µM. Also, the TGI in test [1] turned out to be 3.63 µM; in [2] it was 4.35 µM; in test [3] it was 3.39 µM; in test [4], 3.43 µM; in test [5], 3.22 µM; in test [6], 3.12 µM. Further, the TGI in test [7] is 3.47 µM; in test [8] it was 4.11 µM; in test [9], 3.49 µM; in test [10] it was 3.73 µM.
As to `CC1=NOC(=O)/C1=C/c1ccc([N+](=O)[O-])cc1`, the TGI in [1], in [2], in test [3], in test [4], in test [5] and in test [6] was > 100 µM in each case. The TGI in test [7], in test [8], in test [9] and in test [10] was > 100 µM each time.
With `O=CN1N=C(c2cccc(Nc3ccnc4cc(Cl)ccc34)c2)CC1c1ccccc1` (centres undefined), the GI50 in test [1] is 0.553 µM; in [2], 0.364 µM; in test [3], 0.311 µM; in [4], 0.687 µM; in test [5] it was 0.358 µM; in [6] it was 0.449 µM. For the same compound, the GI50 was 0.495 µM in test [7], 0.768 µM in [8], 0.373 µM in [9] and 0.327 µM in test [10]. Also, the TGI was 7.5 µM in test [1]; 1.63 µM in [2]; 14.7 µM in [3]; > 100 µM in test [4]; 1.55 µM in test [5]; 4.34 µM in [6]. Also, the TGI in [7] was 17.3 µM; in test [8], 41.2 µM; in test [9] it was > 100 µM; in [10] it was 1.15 µM.
`CCCCCCCCCCCCCCCCOP(=O)([O-])OCC[N+](C)(C)C`: the GI50 in test [1] was 3.31 µM; in [2], 1.49 µM; in test [3] it was 2.08 µM; in test [4] it was 0.901 µM; in test [5] it was 1.05 µM; in test [6], 1.36 µM. Further, the GI50 is 1.38 µM in test [7], 2.93 µM in test [8], 3.1 µM in test [9] and 0.39 µM in [10]. The TGI in test [1] was 11.8 µM and 48.3 µM; in test [3] it was 13.9 µM and 57 µM; in [4], 3.7 µM and 14 µM; in test [8] it was 13.7 µM and 52.7 µM; in test [9], 12.6 µM and 52.7 µM.
Consider `Clc1ccc2nc(CI)c(CI)nc2c1`, for which the GI50 in [1] is 2.87 µM; in test [2], 2.53 µM; in test [3] it was 2.54 µM; in test [4] it was 2.73 µM; in [5], 2.71 µM; in [6] it was 1.64 µM. Also, the GI50 in test [7] was 28.7 µM; in [8] it was 4.69 µM; in [9] it was 1.75 µM; in [10], 3.74 µM. In addition, the TGI in test [1] is > 23.5 µM; in [3] it was 6.62 µM; in [4] it was 8.36 µM; in [5], 7.23 µM; in test [6], 3.37 µM; in test [7] it was > 56.3 µM. For the same compound, the TGI in test [8] stood at 14.3 µM; in [9] it was 3.83 µM; in test [10] it was 19.6 µM.
Take `Cn1nc(C(F)(F)F)c(-c2cc(C(F)(F)F)cc(C(F)(F)F)c2)c1-c1ccc(OCc2ccc(Cl)cc2)cc1O`: the GI50 in test [1] is 2.92 µM; in test [2], 1.62 µM; in [3], 3 µM; in test [4], 2.71 µM; in [5], 2.38 µM; in test [6], 1.98 µM. Moreover, the GI50 in [7] was 2.82 µM; in test [8], 2.65 µM; in test [9] it was 1.99 µM; in test [10], 2.9 µM. Besides, the TGI in test [1] amounted to 12.1 µM; in test [2], 3.81 µM; in test [3], 11 µM; in test [4] it was 12.5 µM; in test [5], 12.1 µM; in test [6], 4.31 µM. Moreover, the TGI in test [7] is 8.57 µM; in test [8], 13 µM; in test [9], 5.24 µM; in [10], 10.6 µM.
On to `COc1cc(OC)c(OC)cc1/C=C/c1cnnc2ccccc12`, for which the TGI in [1], in test [2], in test [3], in test [4], in test [5] and in test [6] was > 10 µM throughout. The TGI in test [7], in test [8], in test [9] and in test [10] was > 10 µM throughout.
Consider `CC(C)=CC(=O)N[C@H]1CC[C@]2(C)C3CC[C@]4(C)C(C(C)N(C)C)=CCC4C3CCC2[C@H]1O` (some centres undefined), for which the GI50 was 13.9 µM in [1]; 1.77 µM in [2]; 1.97 µM in [3]; 8.5 µM in [4]; 3.89 µM in test [5]; 1.62 µM in [6]. Further, the GI50 in test [7] is 2.61 µM; in test [8], 2.35 µM; in test [9] it was 1.89 µM; in [10], 0.676 µM. Also, the TGI in [1] was > 51.8 µM; in [2], 4.21 µM; in test [3], 4.55 µM; in test [4], 25.3 µM; in [5], 15.9 µM; in [6], 3.49 µM. Further, the TGI came out at 7.49 µM in [7], 6.63 µM in test [8], 4.23 µM in [9] and 2.92 µM in [10].
